From EP3692978A1, “NOVEL METHOD” (DSM IP Assets B.V., priority 2019, dated 2020)
Where two headings read alike, the source gives them in different places. Where a SMILES comes first, the peptide text is derived from it. [ ]: non-standard residue; d: D form. The star is where a group is joined. Bz = O=C(c1ccccc1)*; NPr2 = CCCN(CCC)*

System: human hair follicles
Format: cell-based
Conditions: hair shaft elongation after 4 days versus vehicle (DMSO) control
Source text: Microdissection of human hair follicles: Human scalp skin samples containing mainly anagen VI hair follicles were obtained from elective face-lift plastic surgery. Informed consent was obtained. Hair follicles were truncated below the dermis, while the remaining hair bulb was separated from the dermal/subcutaneous tissue and placed in appropriate culture medium. Before the experiment, each hair follicle underwent a stringent selection, that is operated by controlling the hair shaft elongation following 18 hrs of organ culture, as well as the general organ morphology. Only the hair follicles that grew at least 0.19 ± 0.02 mm/18 hrs were used for the experiment.
Treatment: The hair growth inhibition of Bz-Gly-His-D-Phe-Arg-D-Trp-N(Pr)2 *2MSA in the concentrations as indicated in table 2 was assessed versus control, i.e. versus a treatment with the vehicle (i.e. DMSO) alone. Evaluation of hair growth inhibition: pictures of the hair follicles in culture were taken at baseline and after 4 days and the hair shaft elongation was measured to determine the hair growth. Table 2: Results

CCCN(CCC)C(=O)[C@@H](Cc1c[nH]c2ccccc12)NC(=O)[C@H](CCCNC(=N)N)NC(=O)[C@@H](Cc1ccccc1)NC(=O)[C@H](Cc1c[nH]cn1)NC(=O)CNC(=O)c1ccccc1 [Bz-Gly-His-D-Phe-Arg-D-Trp-N(Pr)2 *2MSA] (Bz-GH[dF]R[dW]-NPr2)
% hair growth inhibition (1 nM, p = 0.067 (paired t-test)): 12% | % hair growth inhibition (100 nM, p = 0.019 (paired t-test)): 29%
